{"source": "paper PMC6979384", "about": "“Characterization of the plant homeodomain (PHD) reader family for their histone tail interactions” (Epigenetics & Chromatin, 2020)", "assay_in_all_cases": "Histone peptide microarray", "format_in_all_cases": "binding, human", "key": {"AIRE (PP)": {"system": "AIRE (PP)", "method_in_brief": "(§1)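 GST-PHD reader, 0.5 μM, probed on 293-peptide histone array (single/combinatorial PTMs); optimized array protocol; signal = mean ± SD, n = 4.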"}, "BAZ2B": {"system": "BAZ2B", "method_in_brief": "as §1"}, "BPTF (PB)": {"system": "BPTF (PB)", "method_in_brief": "as §1"}, "CHD4 (PPCC)": {"system": "CHD4 (PPCC)", "method_in_brief": "as §1"}, "CHD5 (PCC)": {"system": "CHD5 (PCC)", "method_in_brief": "as §1"}, "CHD5 (PPCC)": {"system": "CHD5 (PPCC)", "method_in_brief": "as §1"}, "DIDO1": {"system": "DIDO1", "method_in_brief": "as §1"}, "DPF2 (PPC2W2)": {"system": "DPF2 (PPC2W2)", "method_in_brief": "as §1"}, "ING1": {"system": "ING1", "method_in_brief": "as §1"}, "ING2": {"system": "ING2", "method_in_brief": "as §1"}, "ING3": {"system": "ING3", "method_in_brief": "as §1"}, "ING4": {"system": "ING4", "method_in_brief": "as §1"}, "ING5": {"system": "ING5", "method_in_brief": "as §1"}, "KDM4C (TTP)": {"system": "KDM4C (TTP)", "method_in_brief": "as §1"}, "KDM5A (1)": {"system": "KDM5A (1)", "method_in_brief": "as §1"}, "KDM5A (3)": {"system": "KDM5A (3)", "method_in_brief": "as §1"}, "KDM5B (1)": {"system": "KDM5B (1)", "method_in_brief": "as §1"}, "KDM5B (3)": {"system": "KDM5B (3)", "method_in_brief": "as §1"}, "KDM7A": {"system": "KDM7A", "method_in_brief": "as §1"}, "MLL5": {"system": "MLL5", "method_in_brief": "as §1"}, "MORC3 (CW)": {"system": "MORC3 (CW)", "method_in_brief": "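Binding read as mean relative signal from 4 replicates; microarray held 293 synthetic histone peptides with single or combinatorial PTMs. Each GST-tagged PHD reader was applied at 0.5 μM using the optimized Petell protocol.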"}, "PHF13": {"system": "PHF13", "method_in_brief": "as §1"}, "PHF21A": {"system": "PHF21A", "method_in_brief": "as §1"}, "PHF23": {"system": "PHF23", "method_in_brief": "as §1"}, "PHF2": {"system": "PHF2", "method_in_brief": "as §1"}, "PHF8": {"system": "PHF8", "method_in_brief": "as §1"}, "PHRF1 (RP)": {"system": "PHRF1 (RP)", "method_in_brief": "as §1"}, "RAG2": {"system": "RAG2", "method_in_brief": "as §1"}, "SP140L": {"system": "SP140L", "method_in_brief": "as §1"}, "TAF3": {"system": "TAF3", "method_in_brief": "as §1"}, "TRIM66 (PB)": {"system": "TRIM66 (PB)", "method_in_brief": "as §1"}, "[1]": {"conditions": "histone peptide array, GST-tagged reader, arrays performed twice, n of 4"}, "[2]": {"conditions": "histone peptide array, GST-tagged reader, PB = PHD + Bromodomain, arrays performed twice, n of 4"}, "[3]": {"conditions": "histone peptide array, GST-tagged reader, PPCC = Dual PHD + Dual Chromodomain, arrays performed twice, n of 4"}}, "note": "Where no end group is shown, it is not given here. [ ]: non-standard residue; d: D form. Lys(Me3) = C[N+](C)(C)CCCC[C@H](N)C(=O)O; pT = C[C@@H](OP(=O)(O)O)[C@H](N)C(=O)O; Lys(Me) = CNCCCC[C@H](N)C(=O)O"}
{"substance": "H3.3K36me3 (27-45): H3.3 27-45 (KSAPSTGGV[Lys(Me3)]KPHRYRPGT; UniProt P84243 28-46, looked up, fragment)", "values": [{"measurement": "Array Heatmap signal, AIRE (PP)", "setting": "AIRE (PP); [1]", "value": 0.5852}, {"measurement": "Array Heatmap signal, BAZ2B", "setting": "BAZ2B; [1]", "value": 0.5018}, {"measurement": "Array Heatmap signal, BPTF (PB)", "setting": "BPTF (PB); [2]", "value": 0.3644}, {"measurement": "Array Heatmap signal, CHD4 (PPCC)", "setting": "CHD4 (PPCC); [3]", "value": 0.6082}, {"measurement": "Array Heatmap signal, CHD5 (PCC)", "setting": "CHD5 (PCC); histone peptide array, GST-tagged reader, PCC = PHD + Dual Chromodomain, arrays performed twice, n of 4", "value": 0.837}, {"measurement": "Array Heatmap signal, CHD5 (PPCC)", "setting": "CHD5 (PPCC); [3]", "value": 0.5971}, {"measurement": "Array Heatmap signal, DIDO1", "setting": "DIDO1; [1]", "value": 0.6308}, {"measurement": "Array Heatmap signal, DPF2 (PPC2W2)", "setting": "DPF2 (PPC2W2); histone peptide array, GST-tagged reader, PPC2W2 = Dual PHD + C2W2-type Zn-finger, arrays performed twice, n of 4", "value": 0.6714}, {"measurement": "Array Heatmap signal, ING1", "setting": "ING1; [1]", "value": 0.5245}, {"measurement": "Array Heatmap signal, ING2", "setting": "ING2; [1]", "value": 0.6059}, {"measurement": "Array Heatmap signal, ING3", "setting": "ING3; [1]", "value": 0.4806}, {"measurement": "Array Heatmap signal, ING4", "setting": "ING4; [1]", "value": 0.493}, {"measurement": "Array Heatmap signal, ING5", "setting": "ING5; [1]", "value": 0.3836}, {"measurement": "Array Heatmap signal, KDM4C (TTP)", "setting": "KDM4C (TTP); histone peptide array, GST-tagged reader, TTP = Tandem Tudor domain + PHD, arrays performed twice, n of 4", "value": 0.5574}, {"measurement": "Array Heatmap signal, KDM5A (1)", "setting": "KDM5A (1); [1]", "value": 0.5417}, {"measurement": "Array Heatmap signal, KDM5A (3)", "setting": "KDM5A (3); [1]", "value": 0.4596}, {"measurement": "Array Heatmap signal, KDM5B (1)", "setting": "KDM5B (1); [1]", "value": 0.6389}, {"measurement": "Array Heatmap signal, KDM5B (3)", "setting": "KDM5B (3); [1]", "value": 0.5477}, {"measurement": "Array Heatmap signal, KDM7A", "setting": "KDM7A; [1]", "value": 0.4319}, {"measurement": "Array Heatmap signal, MLL5", "setting": "MLL5; [1]", "value": 0.5409}, {"measurement": "Array Heatmap signal, MORC3 (CW)", "setting": "MORC3 (CW); histone peptide array, GST-tagged reader, CW = CW-type Zn-finger, arrays performed twice, n of 4", "value": 0.4025}, {"measurement": "Array Heatmap signal, PHF13", "setting": "PHF13; [1]", "value": 0.6344}, {"measurement": "Array Heatmap signal, PHF21A", "setting": "PHF21A; [1]", "value": 0.5086}, {"measurement": "Array Heatmap signal, PHF23", "setting": "PHF23; [1]", "value": 0.5271}, {"measurement": "Array Heatmap signal, PHF2", "setting": "PHF2; [1]", "value": 0.459}, {"measurement": "Array Heatmap signal, PHF8", "setting": "PHF8; [1]", "value": 0.3825}, {"measurement": "Array Heatmap signal, PHRF1 (RP)", "setting": "PHRF1 (RP); [1]", "value": 0.4414}, {"measurement": "Array Heatmap signal, RAG2", "setting": "RAG2; [1]", "value": 0.254}, {"measurement": "Array Heatmap signal, SP140L", "setting": "SP140L; [1]", "value": 0.3873}, {"measurement": "Array Heatmap signal, TAF3", "setting": "TAF3; [1]", "value": 0.2966}, {"measurement": "Array Heatmap signal, TRIM66 (PB)", "setting": "TRIM66 (PB); [2]", "value": 0.5777}]}
{"substance": "H3.3T32pK36me1 (27-45): H3.3 27-45 (KSAPS[pT]GGV[Lys(Me)]KPHRYRPGT; UniProt P84243 28-46, looked up, fragment)", "values": [{"measurement": "Array Heatmap value (peptide array signal)", "setting": "AIRE (PP); AIRE (PP), sheet \"Array Heatmap\", each array performed twice, total n = 4", "value": 0.3866}, {"measurement": "Array Heatmap value (peptide array signal)", "setting": "BAZ2B; BAZ2B, sheet \"Array Heatmap\", each array performed twice, total n = 4", "value": 0.3924}, {"measurement": "Array Heatmap value (peptide array signal)", "setting": "BPTF (PB); BPTF (PB), sheet \"Array Heatmap\", each array performed twice, total n = 4", "value": 0.2876}, {"measurement": "Array Heatmap value (peptide array signal)", "setting": "CHD4 (PPCC); CHD4 (PPCC), sheet \"Array Heatmap\", each array performed twice, total n = 4", "value": 0.5131}, {"measurement": "Array Heatmap value (peptide array signal)", "setting": "CHD5 (PCC); CHD5 (PCC), sheet \"Array Heatmap\", each array performed twice, total n = 4", "value": 0.7362}, {"measurement": "Array Heatmap value (peptide array signal)", "setting": "CHD5 (PPCC); CHD5 (PPCC), sheet \"Array Heatmap\", each array performed twice, total n = 4", "value": 0.4567}, {"measurement": "Array Heatmap value (peptide array signal)", "setting": "DIDO1; DIDO1, sheet \"Array Heatmap\", each array performed twice, total n = 4", "value": 0.6188}, {"measurement": "Array Heatmap value (peptide array signal)", "setting": "DPF2 (PPC2W2); DPF2 (PPC2W2), sheet \"Array Heatmap\", each array performed twice, total n = 4", "value": 0.6269}, {"measurement": "Array Heatmap value (peptide array signal)", "setting": "ING1; ING1, sheet \"Array Heatmap\", each array performed twice, total n = 4", "value": 0.4774}, {"measurement": "Array Heatmap value (peptide array signal)", "setting": "ING2; ING2, sheet \"Array Heatmap\", each array performed twice, total n = 4", "value": 0.5942}, {"measurement": "Array Heatmap value (peptide array signal)", "setting": "ING3; ING3, sheet \"Array Heatmap\", each array performed twice, total n = 4", "value": 0.3966}, {"measurement": "Array Heatmap value (peptide array signal)", "setting": "ING4; ING4, sheet \"Array Heatmap\", each array performed twice, total n = 4", "value": 0.3862}, {"measurement": "Array Heatmap value (peptide array signal)", "setting": "ING5; ING5, sheet \"Array Heatmap\", each array performed twice, total n = 4", "value": 0.288}, {"measurement": "Array Heatmap value (peptide array signal)", "setting": "KDM4C (TTP); KDM4C (TTP), sheet \"Array Heatmap\", each array performed twice, total n = 4", "value": 0.4138}, {"measurement": "Array Heatmap value (peptide array signal)", "setting": "KDM5A (1); KDM5A (1), sheet \"Array Heatmap\", each array performed twice, total n = 4", "value": 0.4102}, {"measurement": "Array Heatmap value (peptide array signal)", "setting": "KDM5A (3); KDM5A (3), sheet \"Array Heatmap\", each array performed twice, total n = 4", "value": 0.429}, {"measurement": "Array Heatmap value (peptide array signal)", "setting": "KDM5B (1); KDM5B (1), sheet \"Array Heatmap\", each array performed twice, total n = 4", "value": 0.6155}, {"measurement": "Array Heatmap value (peptide array signal)", "setting": "KDM5B (3); KDM5B (3), sheet \"Array Heatmap\", each array performed twice, total n = 4", "value": 0.4083}, {"measurement": "Array Heatmap value (peptide array signal)", "setting": "KDM7A; KDM7A, sheet \"Array Heatmap\", each array performed twice, total n = 4", "value": 0.3406}, {"measurement": "Array Heatmap value (peptide array signal)", "setting": "MLL5; MLL5, sheet \"Array Heatmap\", each array performed twice, total n = 4", "value": 0.508}, {"measurement": "Array Heatmap value (peptide array signal)", "setting": "MORC3 (CW); MORC3 (CW), sheet \"Array Heatmap\", each array performed twice, total n = 4", "value": 0.3018}, {"measurement": "Array Heatmap value (peptide array signal)", "setting": "PHF13; PHF13, sheet \"Array Heatmap\", each array performed twice, total n = 4", "value": 0.5172}, {"measurement": "Array Heatmap value (peptide array signal)", "setting": "PHF21A; PHF21A, sheet \"Array Heatmap\", each array performed twice, total n = 4", "value": 0.4142}, {"measurement": "Array Heatmap value (peptide array signal)", "setting": "PHF23; PHF23, sheet \"Array Heatmap\", each array performed twice, total n = 4", "value": 0.4636}, {"measurement": "Array Heatmap value (peptide array signal)", "setting": "PHF2; PHF2, sheet \"Array Heatmap\", each array performed twice, total n = 4", "value": 0.4286}, {"measurement": "Array Heatmap value (peptide array signal)", "setting": "PHF8; PHF8, sheet \"Array Heatmap\", each array performed twice, total n = 4", "value": 0.3083}, {"measurement": "Array Heatmap value (peptide array signal)", "setting": "PHRF1 (RP); PHRF1 (RP), sheet \"Array Heatmap\", each array performed twice, total n = 4", "value": 0.3716}, {"measurement": "Array Heatmap value (peptide array signal)", "setting": "RAG2; RAG2, sheet \"Array Heatmap\", each array performed twice, total n = 4", "value": 0.206}, {"measurement": "Array Heatmap value (peptide array signal)", "setting": "SP140L; SP140L, sheet \"Array Heatmap\", each array performed twice, total n = 4", "value": 0.3216}, {"measurement": "Array Heatmap value (peptide array signal)", "setting": "TAF3; TAF3, sheet \"Array Heatmap\", each array performed twice, total n = 4", "value": 0.2218}, {"measurement": "Array Heatmap value (peptide array signal)", "setting": "TRIM66 (PB); TRIM66 (PB), sheet \"Array Heatmap\", each array performed twice, total n = 4", "value": 0.5132}]}
